Columns and labels:
[1] = Enhancement of BMP-2 expression in mouse MC3T3-E1 cells assessed as upregulation rate at 4 uM; assay type: functional, cell-based
Rattus norvegicus [2] = test: Toxicity in sham operated Sprague-Dawley rat assessed as effect on creatinine level at 150 mg/kg/day, po for 90 days; assay type: organism-based; design: route oral; conditions: in vivo, 2160 h
Rattus norvegicus [3] = test: Antiosteoporotic activity in ovariectomized Sprague-Dawley rat assessed as mineral apposition rate at 15 mg/kg/day, po for 90 days by bone histomorphometry; assay type: functional
Rattus norvegicus [4] = test: Antiosteoporotic activity in ovariectomized Sprague-Dawley rat assessed as average osteoid width at 15 mg/kg/day, po for 90 days by bone histomorphometry; assay type: functional
Rattus norvegicus [5] = test: Toxicity in sham operated Sprague-Dawley rat assessed as effect on triglycerides level at 150 mg/kg/day, po for 90 days; assay type: organism-based; design: route oral; conditions: in vivo, 2160 h
Rattus norvegicus [6] = test: Toxicity in sham operated Sprague-Dawley rat assessed as effect on total protein level at 150 mg/kg/day, po for 90 days; assay type: organism-based; design: route oral; conditions: in vivo, 2160 h
Rattus norvegicus [7] = test: Antiosteoporotic activity in ovariectomized Sprague-Dawley rat assessed as osteo cortex mineralization rate at 30 mg/kg/day, po for 90 days by bone histomorphometry; assay type: functional
Rattus norvegicus [8] = test: Antiosteoporotic activity in ovariectomized Sprague-Dawley rat assessed as osteo cortex mineralization rate at 7.5 mg/kg/day, po for 90 days by bone histomorphometry; assay type: functional
Rattus norvegicus [9] = test: Antiosteoporotic activity in ovariectomized Sprague-Dawley rat assessed as trabecula formation surface at 7.5 mg/kg/day, po for 90 days by bone histomorphometry; assay type: functional
Rattus norvegicus [10] = test: Antiosteoporotic activity in ovariectomized Sprague-Dawley rat assessed as trabecula resorption surface at 7.5 mg/kg/day, po for 90 days by bone histomorphometry; assay type: functional
Rattus norvegicus [11] = test: Antiosteoporotic activity in ovariectomized Sprague-Dawley rat assessed as mineral apposition rate at 7.5 mg/kg/day, po for 90 days by bone histomorphometry; assay type: functional
Rattus norvegicus [12] = test: Antiosteoporotic activity in po dosed ovariectomized Sprague-Dawley rat assessed as trabecular bone volume administered for 90 days by bone histomorphometry; assay type: functional, organism-based; conditions: Trabecula
[13] = Toxicity in ip dosed Kunming mouse; assay type: organism-based; conditions: in vivo
Rattus norvegicus [14] = test: Antiosteoporotic activity in po dosed ovariectomized Sprague-Dawley rat assessed as average osteoid width administered for 90 days by bone histomorphometry; assay type: functional, organism-based
Rattus norvegicus [15] = test: Antiosteoporotic activity in ovariectomized Sprague-Dawley rat assessed as average osteoid width at 30 mg/kg/day, po for 90 days by bone histomorphometry; assay type: functional
Rattus norvegicus [16] = test: Antiosteoporotic activity in ovariectomized Sprague-Dawley rat assessed as trabecula formation surface at 30 mg/kg/day, po for 90 days by bone histomorphometry; assay type: functional
Rattus norvegicus [17] = test: Toxicity in sham operated Sprague-Dawley rat assessed as effect on total bilirubin level at 150 mg/kg/day, po for 90 days; assay type: organism-based; design: route oral; conditions: in vivo, 2160 h
Rattus norvegicus [18] = test: Toxicity in sham operated Sprague-Dawley rat assessed as effect on glutamine-oxaloacetic transaminase level at 150 mg/kg/day, po for 90 days; assay type: organism-based; design: route oral; conditions: in vivo, 2160 h
Rattus norvegicus [19] = test: Antiosteoporotic activity in ovariectomized Sprague-Dawley rat assessed as average osteoid width at 7.5 mg/kg/day, po for 90 days by bone histomorphometry; assay type: functional
Rattus norvegicus [20] = test: Antiosteoporotic activity in po dosed ovariectomized Sprague-Dawley rat assessed as mineral apposition rate administered for 90 days by bone histomorphometry; assay type: functional, organism-based
Rattus norvegicus [21] = test: Antiosteoporotic activity in ovariectomized Sprague-Dawley rat assessed as trabecular bone volume at 30 mg/kg/day, po for 90 days by bone histomorphometry; assay type: functional, Trabecula
Rattus norvegicus [22] = test: Toxicity in sham operated Sprague-Dawley rat assessed as effect on general behavior at 150 mg/kg/day, po for 90 days; assay type: organism-based; design: route oral; conditions: in vivo, 2160 h
Rattus norvegicus [23] = test: Toxicity in sham operated Sprague-Dawley rat assessed as effect on glutamic-pyruvic transaminase level at 150 mg/kg/day, po for 90 days; assay type: organism-based; design: route oral; conditions: in vivo, 2160 h
Rattus norvegicus [24] = test: Antiosteoporotic activity in ovariectomized Sprague-Dawley rat assessed as trabecula resorption surface at 30 mg/kg/day, po for 90 days by bone histomorphometry; assay type: functional
Rattus norvegicus [25] = test: Antiosteoporotic activity in po dosed ovariectomized Sprague-Dawley rat assessed as osteo cortex mineralization rate administered for 90 days by bone histomorphometry; assay type: functional, organism-based
[26] = Toxicity in po dosed Kunming mouse; assay type: organism-based; conditions: in vivo
Rattus norvegicus [27] = test: Antiosteoporotic activity in po dosed ovariectomized Sprague-Dawley rat assessed as trabecula resorption surface administered for 90 days by bone histomorphometry; assay type: functional, organism-based
Rattus norvegicus [28] = test: Toxicity in sham operated Sprague-Dawley rat assessed as effect on direct-high density lipoprotein level at 150 mg/kg/day, po for 90 days; assay type: organism-based; design: route oral; conditions: in vivo, 2160 h
Rattus norvegicus [29] = test: Toxicity in sham operated Sprague-Dawley rat assessed as effect on alkaline phosphatase level at 150 mg/kg/day, po for 90 days; assay type: organism-based; design: route oral; conditions: in vivo, 2160 h
Rattus norvegicus [30] = test: Toxicity in sham operated Sprague-Dawley rat assessed as effect on direct-low density lipoprotein level at 150 mg/kg/day, po for 90 days; assay type: organism-based; design: route oral; conditions: in vivo, 2160 h
Rattus norvegicus [31] = test: Antiosteoporotic activity in ovariectomized Sprague-Dawley rat assessed as trabecula formation surface at 15 mg/kg/day, po for 90 days by bone histomorphometry; assay type: functional
Rattus norvegicus [32] = test: Antiosteoporotic activity in ovariectomized Sprague-Dawley rat assessed as mineral apposition rate at 30 mg/kg/day, po for 90 days by bone histomorphometry; assay type: functional
Rattus norvegicus [33] = test: Antiosteoporotic activity in po dosed ovariectomized Sprague-Dawley rat assessed as trabecula formation surface administered for 90 days by bone histomorphometry; assay type: functional, organism-based
Rattus norvegicus [34] = test: Antiosteoporotic activity in ovariectomized Sprague-Dawley rat assessed as osteo cortex mineralization rate at 15 mg/kg/day, po for 90 days by bone histomorphometry; assay type: functional
Rattus norvegicus [35] = test: Toxicity in sham operated Sprague-Dawley rat assessed as effect on albumin level at 150 mg/kg/day, po for 90 days; assay type: organism-based; design: route oral; conditions: in vivo, 2160 h
Rattus norvegicus [36] = test: Toxicity in sham operated Sprague-Dawley rat assessed as effect on blood urea nitrogen level at 150 mg/kg/day, po for 90 days; assay type: organism-based; design: route oral; conditions: in vivo, 2160 h
Rattus norvegicus [37] = test: Antiosteoporotic activity in ovariectomized Sprague-Dawley rat assessed as trabecular bone volume at 7.5 mg/kg/day, po for 90 days by bone histomorphometry; assay type: functional, Trabecula
Rattus norvegicus [38] = test: Toxicity in sham operated Sprague-Dawley rat assessed as effect on bone histomorphometric parameters at 150 mg/kg/day, po for 90 days; assay type: organism-based; design: route oral; conditions: in vivo, 2160 h
Rattus norvegicus [39] = test: Antiosteoporotic activity in ovariectomized Sprague-Dawley rat assessed as trabecula resorption surface at 15 mg/kg/day, po for 90 days by bone histomorphometry; assay type: functional
Rattus norvegicus [40] = test: Toxicity in sham operated Sprague-Dawley rat assessed as effect on calcium level at 150 mg/kg/day, po for 90 days; assay type: organism-based; design: route oral; conditions: in vivo, 2160 h
Rattus norvegicus [41] = test: Toxicity in sham operated Sprague-Dawley rat assessed as effect on total cholesterol level at 150 mg/kg/day, po for 90 days; assay type: organism-based; design: route oral; conditions: in vivo, 2160 h
Rattus norvegicus [42] = test: Antiosteoporotic activity in ovariectomized Sprague-Dawley rat assessed as trabecular bone volume at 15 mg/kg/day, po for 90 days by bone histomorphometry; assay type: functional, Trabecula
Rattus norvegicus [43] = test: Toxicity in sham operated Sprague-Dawley rat assessed as effect on glucose level at 150 mg/kg/day, po for 90 days; assay type: organism-based; design: route oral; conditions: in vivo, 2160 h

`CC(=O)c1cc2c(Cl)c(C)ccc2s1` gave an Activity [1] of 39.8%.

`CC(=O)c1sc2ccc(C(F)(F)F)cc2c1C` showed an Activity [1] of 16.7%.

For `COC(=O)c1cc2ccccc2s1`, the Activity [1] was 27.3%.

In the case of `CC(=O)c1cc2ccccc2s1`, the Activity (Rattus norvegicus [2]) is reported as “Non-toxic”, the Activity (Rattus norvegicus [3]) is reported as 2.19 µm/day and the Activity (Rattus norvegicus [4]) is reported as 10.9 µm. For the same molecule, the Activity (Rattus norvegicus [5]) was “Non-toxic”, the Activity (Rattus norvegicus [6]) was “Non-toxic” and the Activity (Rattus norvegicus [7]) was 3.22 µm/day. The Activity (Rattus norvegicus [8]) was 3.42 µm/day, the Activity (Rattus norvegicus [9]) was 7.4% and the Activity (Rattus norvegicus [10]) was 7.81%. For the same molecule, the Activity (Rattus norvegicus [11]) was 2.32 µm/day, the Activity (Rattus norvegicus [12]) was “Dose-dependent effect” and the LD50 [13] was 1580 mg/kg. For the same molecule, the Activity (Rattus norvegicus [14]) was “Dose-dependent effect”, the Activity (Rattus norvegicus [15]) was 10.8 µm and the Activity (Rattus norvegicus [16]) was 6.39%. For the same molecule, the Activity (Rattus norvegicus [17]) was “Non-toxic”, the Activity (Rattus norvegicus [18]) was “Non-toxic” and the Activity (Rattus norvegicus [19]) was 11.4 µm. The Activity (Rattus norvegicus [20]) was “Dose-dependent effect”, the Activity (Rattus norvegicus [21]) was 21.02% and the Activity (Rattus norvegicus [22]) was “Non-toxic”. The Activity (Rattus norvegicus [23]) was “Non-toxic”, the Activity (Rattus norvegicus [24]) was 4.74% and the Activity (Rattus norvegicus [25]) was “Dose-dependent effect”. The LD50 [26] was 5000 mg/kg, the Activity (Rattus norvegicus [27]) was “Dose-dependent effect” and the Activity (Rattus norvegicus [28]) was “Non-toxic”. The Activity (Rattus norvegicus [29]) was “Non-toxic”, the Activity (Rattus norvegicus [30]) was “Non-toxic” and the Activity [1] was 35.6%. The Activity (Rattus norvegicus [31]) was 6.64%, the Activity (Rattus norvegicus [32]) was 2.18 µm/day and the Activity (Rattus norvegicus [33]) was “Dose-dependent effect”. The Activity (Rattus norvegicus [34]) was 3.14 µm/day, the Activity (Rattus norvegicus [35]) was “Non-toxic” and the Activity (Rattus norvegicus [36]) was “Non-toxic”. The Activity (Rattus norvegicus [37]) was 14.41%, the Activity (Rattus norvegicus [38]) was “Non-toxic” and the Activity (Rattus norvegicus [39]) was 5.16%. For the same molecule, the Activity (Rattus norvegicus [40]) was “Non-toxic”, the Activity (Rattus norvegicus [41]) was “Non-toxic” and the Activity (Rattus norvegicus [42]) was 19.39%. For the same molecule, the Activity (Rattus norvegicus [43]) was “Non-toxic”.

With `CC(=O)c1sc2cccc(Cl)c2c1C` the Activity [1] was 16.5%.

`CC(=O)c1cc2cc(C(F)(F)F)ccc2s1` showed an Activity [1] of 18.5%.

With `CC(=O)c1sc2ccccc2c1C` the Activity [1] was 28%.

In the case of `COc1cc2cc(C(C)=O)sc2cc1OC`, the Activity [1] is reported as 37.1%.

`CC(=O)c1c[nH]c2ccccc12` showed an Activity [1] of 22.8%.

`CC(=O)c1cc2c(Cl)cccc2s1` showed an Activity [1] of 27.9%.
